# Reference: patent publication US10278971B2, “Fluorocyclopentenylcytosine methods of use” (Rexahn Pharmaceuticals, Inc., priority 2015, dated 2019)
# What was measured:
# [1] = system: SW1573/G-; experiment: Cell cycle distribution by flow cytometry (PI); type: cell-based, human
# Protocol: The effect of RX-3117 on cell cycle regulation and cell death in human non-small cell lung cancer (NSCLC) cell lines A549 (adenocarcinoma), SW1573 (alveolar carcinoma) and SW1573/G- (SW1573 cell line resistant to gemcitabine) and H460 (large cell carcinoma) was assessed. The A549 and H460 cell lines were obtained from American Type Culture Collection (Manassas, Va., USA). The SW1573 cell line, obtained from Dr. Johan van Rijn (see Keiser et al., Cancer Research, 49:2988-2993 (1989)), also served as the parental cell line for SW1573/G-. A549, SW1573, and SW1573/G- and H460 were kept in exponential growth in T25 flasks (Greiner Bio-One GmbH, Frickenhausen, Germany) and cultured in Dulbecco's minimal essential medium (DMEM) or RPMI 1640 (A549) supplemented with 10% heat-inactivated fetal bovine serum (FBS) 1% streptomycin and penicillin 20 mM HEPES and maintained in 37° C. water saturated atmospheres of 5% CO2. […] The cells stained with the PI solution were analyzed by FACSCalibur™ (BD Biosciences, Mount View, Calif., USA). Data was analyzed with CellQuest™ Pro software.
# Cell cycle distribution and apoptosis were analyzed by plating cells in flat bottom 6 well plates (Greiner Bio-One GmbH, Frickenhausen, Germany) at the density of 5,000 cells and allowed to attach for 24 h. […] Subsequently, samples were analyzed using FACSCalibur (BD Biosciences, Mount View, Calif., USA). […]
# [2] = system: A549 spheroids; experiment: Spheroid assay, radiosensitizing effect; type: cell-based, human
# Protocol: (§1) The NSCLC cell lines A549 and SW1573 were plated in low attachment 24 well plates (Corning Incorporated, Corning, N.Y.) at a density of 100,000 cells/well and allowed to form spheroids. After three days, single spheroids were transferred to new 24 well low attachment plates (one spheroid/well). Immediately after transfer treatment was started, for A549 and SW1573 cells 1 μM RX-3117 was combined with fractionated 2 Gy irradiation (5 days single 2 Gy dose). Pictures were taken on day 0 (before irradiation) and after 3, 6, 9, and 15 days using a phase contrast microscope (LeicaDMI300B Universal Grab 6.3 software, Digital Cell Imaging Labs). The measurements were taken by ImageJ software (ImageJ 1.45s, Wayne Rasband, National Institutes of Health, Bethesda, Md.) for spheroid volume calculation (V=4/3π(D/2)^3) as described earlier by Galvani et al. (Galvani E, Giovannetti E, Saccani F, Cavazzoni A, Leon L G, Dekker H, Alfieri R, Carmi C, Mor M, Ardizzoni A, Petronini P G and Peters G J: Molecular mechanisms underlying the antitumor activity of 3-aminopropanamide irreversible inhibitors of the epidermal growth factor receptor in non-small cell lung cancer. Neoplasia 15: 61-72, 2013).
# [3] = system: SW1573 spheroids; experiment: Spheroid assay, radiosensitizing effect; type: cell-based, human; conditions: SW1573 spheres
# Protocol: as §1
# [4] = system: DNMT1 mRNA; experiment: DNMT1 RNA expression by real-time PCR; type: cell-based, human
# Protocol: (§2) DNMT1 protein expression was measured by Western Blotting after exposure to RX-3117 for 24 or 48 hr. DNMT1 RNA expression was measured by real-time PCR after 24 and 48 hr exposure to RX-3117. DNMT enzyme activity was measured in isolated nuclei after exposure 1 μM RX-3117 or 5 μM aza-CdR using a DNA methyltransferase assay kit provided by EpiGentek using the ability of a CpG dinding domain to bind to methylated DNA. In A549 cells the effect of 5 μM RX-3117 on overall methylation was measured with a specific antibody against 5-methyl-cytosine. Bands on Western blots were visualized using appropriate InfraRedDye using an Odyssey InfraRed imager.
# [5] = system: overall methylation of DNA; experiment: Overall methylation of DNA with antibody against 5-methyl-cytosine; type: cell-based, human; conditions: A549, 5 μM, 48 hr exposure
# Protocol: as §2
# [6] = system: A549; conditions: as reported in Peters et al. 2013; cited from earlier work
# [7] = system: SW1573; conditions: as reported in Peters et al. 2013; cited from earlier work
smiles,measurement,setting,value
"Nc1ccn([C@@H]2C(F)=C(CO)[C@@H](O)[C@H]2O)c(=O)n1 [RX-3117, 4-amino-1-((1S,4R,5S)-2-fluoro-4,5-dihydroxy-3-hydroxymethyl-cyclopent-2-enyl)-1H-pyrimidin-2-one]",accumulation of cells in the G1 phase,"[1]; 1 μM, 24 hour exposure",induced accumulation
same,accumulation of cells in the S-phase,"[1]; 5×IC50, 24 and 48 hours",induced the accumulation
same,"spheroid volume growth, combination with irradiation","[2]; A549, 1 μM plus 5 days irradiation with 2 Gy",enhanced the effect
same,"spheroid volume growth, RX-3117 alone","[2]; A549, 1 μM, 15 days",only a small effect
same,"spheroid volume, combination with radiotherapy",[3]; 1 μM plus 2 Gy 5 days,the effect was enhanced with the combination
same,"spheroid volume, RX-3117 alone","[3]; 1 μM, 15 days",highly affected
same,DNMT1 mRNA,"[4]; A549 and SW1573, 24 hours exposure",not affected
same,DNMT1 mRNA,"[4]; A549 and SW1573, 48 hr",affected moderately
same,decrease of overall methylation of DNA,[5],25%
same,IC50,[6],8.3 µM
same,IC50,[7],13.7 µM
